Tested on: Mcl-1^(−/−) mouse embryonic fibroblasts (MEFs)
Experiment: Assay of Mcl-1 null MEF cells: ABT-737-induced killing and rescue, cell viability by CellTitre-Blue/CellTitre-Glo
Assay type: cell-based
Description: In summary, cells are split on day one in order to have them at a confluency of 60-80% on day two. On day two, the cells are seeded out into assay plates at a density that will ensure they are not confluent by day four of the assay. The assay plates are incubated at room temperature for 20-60 minutes before being transferred to 37° C. so that edge effects are minimized. For the same reason, assay plates are never stacked on top of each other in the incubator. On day three the cells are treated first with either qVD or with WEHI library compound. […] On day four the cells are incubated for four hours in the presence of CellTitre-Blue™ Cell Viability Assay. This product contains resaruzin which is metabolized by live cells to resorufin. After four hours the level of resorufin is measured. […] This product measures the level of ATP in the cell culture as a direct correlate of cell viability via a luciferase-dependent luminescence output. […]
The protocol for day one was repeated up to the point where the cells were pelleted and the supernatant aspirated off. […] The cells were vortexed and then counted using a haemocytometer. The dilution necessary to achieve a density of 2×10^4 cells ml^−1 (1000 cells per well per 50 μl media) in the required volume was calculated and the dilution performed in 1% FCS containing media. […]

SMILES	EC50 (Mus musculus, Fibroblast, ABT-737-treated Mcl(−/−) cells grown in 1% FCS, headed 'Expected EC50s')	inhibition of killing of Mcl-1 null MEF cells by ABT-737 (rescue from ABT-737-induced apoptosis) (cells pre-incubated 2 hours with compound, then treated with ABT-737, viability read next day)
CC(C)[C@H](NC(=O)c1ccc2ccccc2n1)C(=O)N[C@@H](CC(=O)O)C(=O)COc1c(F)cccc1F [qVD-OPH]		can be rescued

Source: patent US20100075345A1, “METHOD OF SCREENING” (priority 2007, published 2010)
